{"source": "patent EP4678634A1", "about": "“ANDROGEN RECEPTOR MODULATORS AND USES THEREOF” (Haihe Biopharma Co., Ltd., priority 2023, dated 2024)", "note": "pIC50: −log10 of the molar value.", "data": [{"target": "T1, Androgen receptor (AR) (Homo sapiens, UniProt P10275)", "T1 construct": "expressed in transfected cells; host or cells: HEK293T (AR+ARE/Luc)", "T1 sequence (P10275 1-920)": "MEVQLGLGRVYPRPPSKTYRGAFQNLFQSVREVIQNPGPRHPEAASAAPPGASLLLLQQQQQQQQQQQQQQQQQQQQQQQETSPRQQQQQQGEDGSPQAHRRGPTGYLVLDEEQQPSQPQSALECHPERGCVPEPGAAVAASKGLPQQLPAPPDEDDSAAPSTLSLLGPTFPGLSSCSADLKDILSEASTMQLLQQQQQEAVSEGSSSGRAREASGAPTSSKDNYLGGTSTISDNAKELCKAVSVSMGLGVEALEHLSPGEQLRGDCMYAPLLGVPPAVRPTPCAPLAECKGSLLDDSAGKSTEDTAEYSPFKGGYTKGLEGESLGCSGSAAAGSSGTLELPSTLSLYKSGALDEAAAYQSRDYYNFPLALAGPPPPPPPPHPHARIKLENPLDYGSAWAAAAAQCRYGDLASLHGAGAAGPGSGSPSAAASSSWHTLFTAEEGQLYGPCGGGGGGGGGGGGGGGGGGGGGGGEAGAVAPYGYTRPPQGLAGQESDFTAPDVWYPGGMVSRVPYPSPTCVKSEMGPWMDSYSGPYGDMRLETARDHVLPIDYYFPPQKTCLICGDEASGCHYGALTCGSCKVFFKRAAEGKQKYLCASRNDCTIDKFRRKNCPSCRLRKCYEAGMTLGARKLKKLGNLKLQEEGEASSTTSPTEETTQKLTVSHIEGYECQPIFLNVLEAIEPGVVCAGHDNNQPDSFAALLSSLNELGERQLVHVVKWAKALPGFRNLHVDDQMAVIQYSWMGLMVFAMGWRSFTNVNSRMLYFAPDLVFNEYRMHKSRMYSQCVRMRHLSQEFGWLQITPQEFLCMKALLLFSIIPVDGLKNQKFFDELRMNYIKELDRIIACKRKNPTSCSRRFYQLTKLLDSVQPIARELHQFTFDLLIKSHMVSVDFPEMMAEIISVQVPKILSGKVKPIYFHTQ", "assay": "Androgen receptor (AR) reporter gene assay (luciferase)", "format": "cell-based", "settings": "AR+ARE/Luc HEK293T cells, stimulated with 11-KDHT, 24h incubation, Bright-Lite luminescence; read-out: HEK293 Luc IC50", "description": "Androgen receptor (AR) reporter gene assay\nExperimental reagents: 11-Ketodihydrotestosterone (11-KDHT) was purchased from MCE (cat.HY-135794); Enzalutamide (MDV3100) was purchased from Selleck (cat.S1250); Bright-Lite Luciferase Assay kit was purchased from Vazyme (cat.DD1204-01);\n• 1. dissolve the described compounds in 100% DMSO at a final concentration of 10 mM. 100 nL each of 400X compound to be tested and 400X 11-KDHT (40 nM) were added to a 384-well assay plate with Echo, followed by 20 µL of complete medium, and centrifuged at 1000 rpm for 1 min, and oscillated for 20-30 min at room temperature. • 2. 20 µL of AR+ARE/Luc HEK293T cells (10,000 cells/well) were inoculated into the assay plate containing the compounds and 11-KDHT, and centrifuged at 1000 rpm for 1 min. The assay plate was incubated in a 37 °C CO2 incubator for 24h. • 3. 40 µL of Bright-Lite assay reagent was transferred to each well of the assay plate, centrifuged at 1000 rpm for 1 min, and shaken for 2 min at room temperature protected from light. Luminescence values (RLU) were measured using Envision. Based on the results, the IC50 values of the compounds described were calculated. Table 1 HEK293-Luc% inhibition IC50 of representative compounds", "values": [{"compound": "NCc1cc2c(c(Cl)c1OCCCl)CCCC2c1cnc2[nH]ncc2c1", "note": "(stereo not drawn) [HANT-184]", "pIC50": "6.00 to 6.30"}, {"compound": "O=c1[nH]c2ccc(C3CCCc4c3cc(Cl)c(OCCCl)c4Cl)cc2o1", "note": "(stereo not drawn) [HANT-114]", "pIC50": "6.30 to 9.00"}, {"compound": "COc1ccc(C2CCCc3c2cc(C#N)c(OCCCl)c3Cl)cn1", "note": "(stereo not drawn) [HANT-335]", "pIC50": "6.30 to 9.00"}, {"compound": "Oc1ccc(C2CCCc3c2cc(Cl)c(OCCCl)c3Cl)c(F)c1", "note": "(stereo not drawn) [HANT-110, 4-(5,7-dichloro-6-(2-chloroethoxy)-1,2,3,4-tetrahydronaphthalen-1-yl)-3-fluorophenol]", "pIC50": "6.30 to 9.00"}, {"compound": "Oc1ccc(C2CCCc3c2cc(Cl)c(OCCCl)c3Cl)cn1", "note": "(stereo not drawn) [HANT-101]", "pIC50": "5.70 to 6.00"}, {"compound": "COc1cncc(NC2CCCc3c2cc(C#N)c(OCCCl)c3Cl)c1", "note": "(stereo not drawn) [HANT-266]", "pIC50": "6.30 to 9.00"}, {"compound": "N#Cc1cc2c(c(Cl)c1OCCCl)CCC[C@@H]2c1cnc(N)nc1", "note": "[HANT-204A]", "pIC50": "< 5.70"}, {"compound": "N#Cc1cc2c(c(Cl)c1OCCCl)CCCC2Oc1cccnc1", "note": "(stereo not drawn) [HANT-267]", "pIC50": "6.30 to 9.00"}, {"compound": "OC1CCN(C2CCCc3c2cc(Cl)c(OCCCl)c3Cl)CC1", "note": "(stereo not drawn) [HANT-123]", "pIC50": "6.00 to 6.30"}, {"compound": "N#Cc1cc2c(c(Cl)c1OCCCl)CCCC2c1ccc2c(c1)C(=O)NC2=O", "note": "(stereo not drawn) [HANT-977]", "pIC50": "6.30 to 9.00"}, {"compound": "ClCCOc1c(Cl)cc2c(c1Cl)CCC[C@H]2c1ccc2[nH]ncc2c1", "note": "[HANT-118]", "pIC50": "6.30 to 9.00"}, {"compound": "ClCCOc1c(Cl)cc2c(c1Cl)CCCN2c1cnc2[nH]ncc2c1", "note": "[HANT-166, 5,7-dichloro-6-(2-chloroethoxy)-1-(1H-pyrazolo[3,4-b]pyridin-5-yl)-1,2,3,4-tetrahydroquinoline]", "pIC50": "6.00 to 6.30"}, {"compound": "N#Cc1cc2c(c(Cl)c1OCCCl)CCC[C@H]2c1cnc(N)nc1", "note": "[HANT-204B]", "pIC50": "6.30 to 9.00"}, {"compound": "N#Cc1ccc(NC2CCCc3c2cc(C#N)c(OCCCl)c3Cl)cn1", "note": "(stereo not drawn) [HANT-262]", "pIC50": "6.30 to 9.00"}, {"compound": "CCCOc1c(C#N)cc2c(c1Cl)CCCC2c1cnc(N)nc1", "note": "(stereo not drawn) [HANT-257]", "pIC50": "6.30 to 9.00"}, {"compound": "ClCCOc1c(Cl)cc2c(c1Cl)CCCC2c1ccc2[nH]nnc2c1", "note": "(stereo not drawn) [HANT-113, 5-(5,7-dichloro-6-(2-chloroethoxy)-1,2,3,4-tetrahydronaphthalen-1-yl)-1H-benzo[d][1,2,3]triaz ole]", "pIC50": "6.00 to 6.30"}, {"compound": "N#Cc1cc2c(c(Cl)c1OCCCl)CCCC2c1cn[nH]c1", "note": "(stereo not drawn) [HANT-200]", "pIC50": "6.00 to 6.30"}, {"compound": "N#Cc1cc2c(c(Cl)c1OCCCl)CCCC2Nc1cnc2[nH]ncc2c1", "note": "(racemic) [HANT-192, 8-((1H-pyrazolo[3,4-b]pyridin-5-yl)amino)-4-chloro-3-(2-chloroethoxy)-5,6,7,8-tetrahydronaph thalene-2-carbonitrile]", "pIC50": "6.30 to 9.00"}, {"compound": "N#Cc1cc2c(c(Cl)c1OCCCl)CCCC2c1ccc2[nH]ncc2n1", "note": "(stereo not drawn) [HANT-148, 4-chloro-3-(2-chloroethoxy)-8-(1H-pyrazolo[4,3-b]pyridin-5-yl)-5,6,7,8-tetrahydronaphthalene-2-carbonitrile]", "pIC50": "6.00 to 6.30"}, {"compound": "N#Cc1cc2c(c(Cl)c1OCCCl)CCCC2NC(=O)c1ccc2[nH]ncc2c1", "note": "(stereo not drawn) [HANT-186]", "pIC50": "6.30 to 9.00"}, {"compound": "N#Cc1cc2c(c(Cl)c1OCCCl)CCCC2NC(=O)c1ccc(Cl)cc1", "note": "(stereo not drawn) [HANT-232]", "pIC50": "6.30 to 9.00"}]}]}
